According to article PMC5306220 (European Journal of Clinical Pharmacology, 2016):

Tests used:
blood pressure = conditions: patients with T2DM; cited from earlier work
[1] = Safety: treatment-emergent adverse events, laboratory tests, vital signs, ECG;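 note: dosing after fasting overnight (8 h minimum), clinic stay to day 2, outpatient visits on days 3 and 4, and a telephone check for adverse events about 14 days after study exit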
[2] = Plasma and urine pharmacokinetics of alogliptin after a single oral dose (LC-MS/MS, noncompartmental)
[3] = Population PK/PD model fitted to study data: PK parameter estimates; format: in vivo, human; conditions: PK/PD model typical value
Text: To bridge the adult and pediatric PK, the PK model included weight as an initial covariate on clearance and volume of distribution parameters, as shown in the following equation: Pi=Ppop⋅WTi/WTreference^b⋅e^ηi

[4] = 12.5 mg single dose, Group 1 10 to <14 years, N = 5
[5] = 12.5 mg single dose, Group 2 14 to <18 years, N = 8
[6] = 25 mg single dose, Group 1 10 to <14 years, N = 4
[7] = 25 mg single dose, Group 2 14 to <18 years, N = 7
[8] = 25 mg single dose, Group 3 Adults, N = 22
[9] = entire study period, all 46 subjects
[10] = pediatric subjects, 12.5-mg dose vs adults 25 mg

What does the source list for `Cn1c(=O)cc(N2CCC[C@@H](N)C2)n(Cc2ccccc2C#N)c1=O` [alogliptin]?
effect on blood pressure (blood pressure): lower blood pressure; Mild TEAEs: Subjects, N (%) [1, 4]: 3 (60.0); Moderate TEAEs: Subjects, N (%) [1, 4]: 0; Not related TEAEs: Subjects, N (%) [1, 4]: 1 (20.0); Related TEAEs: Subjects, N (%) [1, 4]: 2 (40.0); Severe TEAEs: Subjects, N (%) [1, 4]: 0; TEAEs: Subjects, N (%) [1, 4]: 3 (60.0); Mild TEAEs: Subjects, N (%) [1, 5]: 5 (62.5); Moderate TEAEs: Subjects, N (%) [1, 5]: 0; Not related TEAEs: Subjects, N (%) [1, 5]: 3 (37.5); Related TEAEs: Subjects, N (%) [1, 5]: 2 (25.0); Severe TEAEs: Subjects, N (%) [1, 5]: 0; TEAEs: Subjects, N (%) [1, 5]: 5 (62.5); Mild TEAEs: Subjects, N (%) [1, 6]: 1 (25.0); Moderate TEAEs: Subjects, N (%) [1, 6]: 0; Not related TEAEs: Subjects, N (%) [1, 6]: 1 (25.0); Related TEAEs: Subjects, N (%) [1, 6]: 0; Severe TEAEs: Subjects, N (%) [1, 6]: 0; TEAEs: Subjects, N (%) [1, 6]: 1 (25.0); Mild TEAEs: Subjects, N (%) [1, 7]: 2 (28.6); Moderate TEAEs: Subjects, N (%) [1, 7]: 0; Not related TEAEs: Subjects, N (%) [1, 7]: 2 (28.6); Related TEAEs: Subjects, N (%) [1, 7]: 0; Severe TEAEs: Subjects, N (%) [1, 7]: 0; TEAEs: Subjects, N (%) [1, 7]: 2 (28.6); Mild TEAEs: Subjects, N (%) [1, 8]: 7 (31.8); Moderate TEAEs: Subjects, N (%) [1, 8]: 1 (4.5); Not related TEAEs: Subjects, N (%) [1, 8]: 4 (18.2); Related TEAEs: Subjects, N (%) [1, 8]: 5 (22.7); Severe TEAEs: Subjects, N (%) [1, 8]: 1 (4.5); TEAEs: Subjects, N (%) [1, 8]: 9 (40.9); AEs leading to study drug discontinuation ([1]; entire study): No AEs led to study drug discontinuation; abnormal ECG results reported as TEAE ([1]; entire study): No abnormal ECG result was reported as a TEAE; deaths ([1]; entire study): no deaths occurred; number of TEAEs [1, 9]: 36; subjects who experienced TEAEs [1, 9]: 20; tolerability ([1]; single doses 12.5 and 25 mg, pediatric and adult subjects): well tolerated; mean CL/F higher in all pediatric subjects compared with adult subjects ([2]; groups 1 and 2 vs adults): up to 37%; Tmax ([2]; human, plasma, po): 2 to 4 h; correlation between dose-normalized AUC0-inf and creatinine clearance ([2]; pediatric and adult subjects): no correlations were observed; mean AUC0-inf lower than in adults [2, 10]: 54%; mean Cmax lower than in adults [2, 10]: 58%; mean AUC0-inf lower than in adults receiving the 25-mg dose ([2]; pediatric subjects, 25-mg dose): 23%; mean Cmax lower than in adults receiving the 25-mg dose ([2]; pediatric subjects, 25-mg dose): 26%; Absorption rate constant [KA] in adult subjects ([3]; adult subjects): 1.66 h⁻¹; Oral clearance [CL/F] in adult subjects ([3]; adult subjects, reference body weight 70 kg): 13.0 L/h; Absorption rate constant [KA] in pediatric subjects ([3]; pediatric subjects): 0.590 h⁻¹; Oral clearance [CL/F] in pediatric subjects ([3]; pediatric subjects, reference body weight 70 kg): 14.4 L/h; Vd/F ([3]; human, plasma, oral, read-out: Central volume of distribution [V2/F]): 125 L
